Results taken from ChEMBL document CHEMBL5375992, “Design and Development of IKZF2 and CK1α Dual Degraders” (J Med Chem, 2023).
Converted amounts (≈) assume the structure as drawn. The source made the active and inactive calls. No cut-off for these calls is given here.

Tests used:
[1] = target: T1, Protein cereblon/Eukaryotic peptide chain release factor GTP-binding subunit ERF3A (Homo sapiens) (UniProt Q96SW2+P15170); experiment: Protac activity at CRBN/GSPT1 in human OCILY3 cells assessed as relative ratio at 10 nM incubated for 24 hrs by Western blotting analysis relative to DMSO; type: cell-based
T1 sequence (P15170 whole entry, looked up): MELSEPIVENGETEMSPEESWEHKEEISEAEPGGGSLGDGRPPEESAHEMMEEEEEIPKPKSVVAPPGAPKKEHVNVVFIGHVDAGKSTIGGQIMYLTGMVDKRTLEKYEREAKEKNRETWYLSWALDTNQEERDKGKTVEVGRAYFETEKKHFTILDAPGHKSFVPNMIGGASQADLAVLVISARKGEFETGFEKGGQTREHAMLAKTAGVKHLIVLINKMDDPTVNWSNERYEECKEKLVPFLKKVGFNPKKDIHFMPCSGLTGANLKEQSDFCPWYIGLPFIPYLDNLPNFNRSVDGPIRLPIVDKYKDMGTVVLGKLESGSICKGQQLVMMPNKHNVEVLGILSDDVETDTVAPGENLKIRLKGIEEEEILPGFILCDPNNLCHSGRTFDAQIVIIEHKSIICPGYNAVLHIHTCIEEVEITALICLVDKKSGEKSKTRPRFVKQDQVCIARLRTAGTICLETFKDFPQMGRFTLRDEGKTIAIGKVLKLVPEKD
T1 sequence (Q96SW2 whole entry, looked up): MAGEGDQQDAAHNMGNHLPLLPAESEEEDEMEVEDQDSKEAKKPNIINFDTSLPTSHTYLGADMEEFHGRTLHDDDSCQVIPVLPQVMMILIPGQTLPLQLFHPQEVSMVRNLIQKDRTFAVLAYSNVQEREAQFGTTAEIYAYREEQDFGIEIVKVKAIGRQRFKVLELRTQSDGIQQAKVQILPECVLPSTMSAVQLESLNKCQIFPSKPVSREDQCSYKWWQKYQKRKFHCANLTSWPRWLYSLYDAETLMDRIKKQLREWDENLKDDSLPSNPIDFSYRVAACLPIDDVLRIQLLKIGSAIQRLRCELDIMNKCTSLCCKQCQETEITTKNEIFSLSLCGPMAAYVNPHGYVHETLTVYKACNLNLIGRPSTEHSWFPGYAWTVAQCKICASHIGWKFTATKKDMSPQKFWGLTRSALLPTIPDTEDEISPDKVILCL

[2] = target: T2, Cereblon/Casein kinase I alpha (Homo sapiens) (UniProt P48729+Q96SW2); experiment: Protac activity at CRBN/CK1alpha in human OCILY3 cells assessed as relative ratio at 10 nM incubated for 24 hrs by Western blotting analysis relative to DMSO; type: cell-based
T2 sequence (P48729 2-337 limits assumed): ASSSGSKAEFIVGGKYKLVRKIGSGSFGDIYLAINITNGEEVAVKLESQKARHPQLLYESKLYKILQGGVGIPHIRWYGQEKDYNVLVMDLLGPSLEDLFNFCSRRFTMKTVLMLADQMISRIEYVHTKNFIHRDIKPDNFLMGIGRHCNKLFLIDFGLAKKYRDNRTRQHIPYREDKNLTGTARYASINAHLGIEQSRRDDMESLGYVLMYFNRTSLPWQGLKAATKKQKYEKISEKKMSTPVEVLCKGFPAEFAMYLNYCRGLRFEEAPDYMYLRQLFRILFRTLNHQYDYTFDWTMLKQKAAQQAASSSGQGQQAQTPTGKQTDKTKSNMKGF
T2 sequence (Q96SW2 whole entry partner): as the sequence (Q96SW2 whole entry, looked up) above

[3] = target: T1, Protein cereblon/Eukaryotic peptide chain release factor GTP-binding subunit ERF3A (Homo sapiens); experiment: Protac activity at CRBN/GSPT1 in human OCILY3 cells assessed as relative ratio at 100 nM incubated for 24 hrs by Western blotting analysis relative to DMSO; type: cell-based
[4] = target: T3, Protein cereblon/Zinc finger protein Helios (Homo sapiens) (UniProt Q96SW2+Q9UKS7); experiment: Protac activity at CRBN/IKZF2 (unknown origin) transfected in HEK293T cells at 100 nM incubated for 24 hrs by flow cytometry analysis relative to control; type: cell-based
T3 sequence (Q96SW2 whole entry, looked up): as above
T3 sequence (Q9UKS7 whole entry, looked up): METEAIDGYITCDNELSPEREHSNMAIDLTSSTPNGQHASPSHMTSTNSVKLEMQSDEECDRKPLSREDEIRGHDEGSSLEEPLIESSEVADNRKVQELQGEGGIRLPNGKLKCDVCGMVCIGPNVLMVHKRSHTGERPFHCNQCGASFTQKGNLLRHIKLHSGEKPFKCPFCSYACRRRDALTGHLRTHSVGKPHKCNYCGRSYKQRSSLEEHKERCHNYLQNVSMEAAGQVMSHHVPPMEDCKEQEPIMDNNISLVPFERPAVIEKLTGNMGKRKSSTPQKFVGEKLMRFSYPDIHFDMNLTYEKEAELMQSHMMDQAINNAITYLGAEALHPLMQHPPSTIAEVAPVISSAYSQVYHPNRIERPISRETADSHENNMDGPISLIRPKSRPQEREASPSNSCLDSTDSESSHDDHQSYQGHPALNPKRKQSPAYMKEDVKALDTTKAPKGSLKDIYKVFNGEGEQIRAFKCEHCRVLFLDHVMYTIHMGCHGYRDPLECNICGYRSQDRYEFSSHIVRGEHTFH

[5] = target: T1, Protein cereblon/Eukaryotic peptide chain release factor GTP-binding subunit ERF3A (Homo sapiens); experiment: Protac activity at CRBN/GSPT1 (unknown origin) transfected in HEK293T cells at 100 nM incubated for 24 hrs by flow cytometry analysis relative to control; type: cell-based
A2780 [6] = experiment: Upregulation of p53 protein expression in human A2780 cells at […] incubated for 24 hrs by Western blot analysis; type: functional, cell-based
[7] = target: T1, Protein cereblon/Eukaryotic peptide chain release factor GTP-binding subunit ERF3A (Homo sapiens); experiment: Protac activity at CRBN/GSPT1 in human A2780 cells assessed as relative ratio at 10 uM incubated for 24 hrs by Western blotting analysis relative to DMSO; type: cell-based
[8] = target: T1, Protein cereblon/Eukaryotic peptide chain release factor GTP-binding subunit ERF3A (Homo sapiens); experiment: Protac activity at CRBN/GSPT1 in human NCI-H1048 cells at 10 to 100 nM incubated for 24 hrs by Western blotting analysis; type: cell-based; settings: dose 10-100 nM
A2780 [9] = experiment: Upregulation of p21 transcript level in human A2780 cells at 1 uM incubated for 24 hrs by RT-qPCR analysis; type: functional, cell-based
[10] = target: T3, Protein cereblon/Zinc finger protein Helios (Homo sapiens); experiment: Protac activity at CRBN/IKZF2 in human A2780 cells assessed as relative ratio at 10 uM incubated for 24 hrs by Western blotting analysis relative to DMSO; type: cell-based
[11] = target: T3, Protein cereblon/Zinc finger protein Helios (Homo sapiens); experiment: Protac activity at CRBN/IKZF2 in human A2780 cells assessed as relative ratio at 1 uM incubated for 24 hrs by Western blotting analysis relative to DMSO; type: cell-based
[12] = target: T1, Protein cereblon/Eukaryotic peptide chain release factor GTP-binding subunit ERF3A (Homo sapiens); experiment: Protac activity at CRBN/GSPT1 in human A2780 cells assessed as relative ratio at 10 nM incubated for 24 hrs by Western blotting analysis relative to DMSO; type: cell-based
[13] = target: T2, Cereblon/Casein kinase I alpha (Homo sapiens); experiment: Protac activity at CRBN/CK1alpha in human A2780 cells assessed as relative ratio at 10 nM incubated for 24 hrs by Western blotting analysis relative to DMSO; type: cell-based
[14] = target: T2, Cereblon/Casein kinase I alpha (Homo sapiens); experiment: Protac activity at CRBN/CK1alpha in human MOLM-13 cells at 50 nM incubated for 2 hrs by proteomic analysis; type: cell-based
[15] = target: T3, Protein cereblon/Zinc finger protein Helios (Homo sapiens); experiment: Protac activity at CRBN/IKZF2 in human A2780 cells assessed as relative ratio at 1 nM incubated for 24 hrs by Western blotting analysis relative to DMSO; type: cell-based
[16] = target: T2, Cereblon/Casein kinase I alpha (Homo sapiens); experiment: Protac activity at CRBN/CK1alpha in human A2780 cells assessed as relative ratio at 100 nM incubated for 24 hrs by Western blotting analysis relative to DMSO; type: cell-based
OCI-Ly3 [17] = experiment: Upregulation of p21 transcript level in human OCILY3 cells at 1 uM incubated for 24 hrs by RT-qPCR analysis; type: functional, cell-based
[18] = target: T2, Cereblon/Casein kinase I alpha (Homo sapiens); experiment: Protac activity at CRBN/CK1alpha in human A2780 cells assessed as relative ratio at 1 nM incubated for 24 hrs by Western blotting analysis relative to DMSO; type: cell-based
[19] = target: T2, Cereblon/Casein kinase I alpha (Homo sapiens); experiment: Protac activity at CRBN/CK1alpha (unknown origin) transfected in HEK293T cells at 100 nM incubated for 24 hrs by flow cytometry analysis relative to control; type: cell-based
[20] = target: T2, Cereblon/Casein kinase I alpha (Homo sapiens); experiment: Protac activity at CRBN/CK1alpha in human OCILY3 cells assessed as relative ratio at 1 uM incubated for 24 hrs by Western blotting analysis relative to DMSO; type: cell-based
[21] = target: T1, Protein cereblon/Eukaryotic peptide chain release factor GTP-binding subunit ERF3A (Homo sapiens); experiment: Protac activity at CRBN/GSPT1 in human OCILY3 cells assessed as relative ratio at 1 nM incubated for 24 hrs by Western blotting analysis relative to DMSO; type: cell-based
OCI-Ly3 [22] = experiment: Upregulation of Bax transcript level in human OCILY3 cells at 1 uM incubated for 24 hrs by RT-qPCR analysis; type: functional, cell-based
OCI-Ly3 [23] = experiment: Upregulation of Bax protein expression in human OCILY3 cells at […] incubated for 24 hrs by Western blot analysis; type: functional, cell-based
[24] = target: Cereblon/Ikaros (Homo sapiens) (UniProt Q96SW2+Q13422); experiment: Protac activity at CRBN/IKZF1 (unknown origin) transfected in HEK293T cells at 100 nM incubated for 24 hrs by flow cytometry analysis relative to control; type: cell-based
[25] = target: T1, Protein cereblon/Eukaryotic peptide chain release factor GTP-binding subunit ERF3A (Homo sapiens); experiment: Protac activity at CRBN/GSPT1 in human OCILY3 cells assessed as relative ratio at 1 uM incubated for 24 hrs by Western blotting analysis relative to DMSO; type: cell-based
A2780 [26] = experiment: Upregulation of Bax protein expression in human A2780 cells at […] incubated for 24 hrs by Western blot analysis; type: functional, cell-based
[27] = target: T2, Cereblon/Casein kinase I alpha (Homo sapiens); experiment: Protac activity at CRBN/CK1alpha in human OCILY3 cells assessed as relative ratio at 1 nM incubated for 24 hrs by Western blotting analysis relative to DMSO; type: cell-based
A2780 [28] = experiment: Upregulation of MDM2 protein expression in human A2780 cells at […] incubated for 24 hrs by Western blot analysis; type: functional, cell-based
[29] = target: T1, Protein cereblon/Eukaryotic peptide chain release factor GTP-binding subunit ERF3A (Homo sapiens); experiment: Protac activity at CRBN/GSPT1 in human A2780 cells assessed as relative ratio at 1 nM incubated for 24 hrs by Western blotting analysis relative to DMSO; type: cell-based
[30] = target: T2, Cereblon/Casein kinase I alpha (Homo sapiens); experiment: Protac activity at CRBN/CK1alpha in human A2780 cells assessed as relative ratio at 1 uM incubated for 24 hrs by Western blotting analysis relative to DMSO; type: cell-based
[31] = target: T1, Protein cereblon/Eukaryotic peptide chain release factor GTP-binding subunit ERF3A (Homo sapiens); experiment: Protac activity at CRBN/GSPT1 in human A2780 cells assessed as relative ratio at 100 nM incubated for 24 hrs by Western blotting analysis relative to DMSO; type: cell-based
[32] = target: T3, Protein cereblon/Zinc finger protein Helios (Homo sapiens); experiment: Protac activity at CRBN/IKZF2 in human A2780 cells assessed as relative ratio at 10 nM incubated for 24 hrs by Western blotting analysis relative to DMSO; type: cell-based
[33] = target: T1, Protein cereblon/Eukaryotic peptide chain release factor GTP-binding subunit ERF3A (Homo sapiens); experiment: Protac activity at CRBN/GSPT1 in human A2780 cells assessed as relative ratio at 1 uM incubated for 24 hrs by Western blotting analysis relative to DMSO; type: cell-based
A2780 [34] = experiment: Cytotoxicity against human A2780 cells incubated for 5 days by MTT assay; type: functional, cell-based; settings: A2780, 120 h
OCI-Ly3 [35] = experiment: Upregulation of p21 protein expression in human OCILY3 cells at […] incubated for 24 hrs by Western blot analysis; type: functional, cell-based
[36] = target: T1, Protein cereblon/Eukaryotic peptide chain release factor GTP-binding subunit ERF3A (Homo sapiens); experiment: Protac activity at CRBN/GSPT1 in human OCILY3 cells assessed as relative ratio at 10 uM incubated for 24 hrs by Western blotting analysis relative to DMSO; type: cell-based
OCI-Ly3 [37] = experiment: Cytotoxicity against human OCILY3 cells incubated for 5 days by MTT assay; type: functional, cell-based; settings: OCI-Ly3, 120 h
[38] = target: T2, Cereblon/Casein kinase I alpha (Homo sapiens); experiment: Protac activity at CRBN/CK1alpha in human OCILY3 cells assessed as relative ratio at 10 uM incubated for 24 hrs by Western blotting analysis relative to DMSO; type: cell-based
A2780 [39] = experiment: Upregulation of p21 protein expression in human A2780 cells at […] incubated for 24 hrs by Western blot analysis; type: functional, cell-based
[40] = target: T2, Cereblon/Casein kinase I alpha (Homo sapiens); experiment: Protac activity at CRBN/CK1alpha in human OCILY3 cells assessed as relative ratio at 100 nM incubated for 24 hrs by Western blotting analysis relative to DMSO; type: cell-based
[41] = Solubility of compound in DMSO; type: physicochemical; settings: DMSO; read-out: solubility
[42] = target: T3, Protein cereblon/Zinc finger protein Helios (Homo sapiens); experiment: Protac activity at CRBN/IKZF2 in human A2780 cells assessed as relative ratio at 100 nM incubated for 24 hrs by Western blotting analysis relative to DMSO; type: cell-based
OCI-Ly3 [43] = experiment: Upregulation of p53 protein expression in human OCILY3 cells at […] incubated for 24 hrs by Western blot analysis; type: functional, cell-based
A2780 [44] = experiment: Upregulation of Bax transcript level in human A2780 cells at 1 uM incubated for 24 hrs by RT-qPCR analysis; type: functional, cell-based
[45] = target: T2, Cereblon/Casein kinase I alpha (Homo sapiens); experiment: Protac activity at CRBN/CK1alpha in human A2780 cells assessed as relative ratio at 10 uM incubated for 24 hrs by Western blotting analysis relative to DMSO; type: cell-based
OCI-Ly3 [46] = experiment: Upregulation of MDM2 protein expression in human OCILY3 cells at […] incubated for 24 hrs by Western blot analysis; type: functional, cell-based

With `COc1cccc2c1OCC(C(=O)Nc1ccc3c(c1)CN(C1CCC(=O)NC1=O)C3=O)=C2` (stereo unspecified) the Ratio [1] was 0.67, the Ratio [2] was 0.28 and the Ratio [3] was 0.65. The Activity [4] was 82%, the Activity [5] was 4% and the Activity (A2780 [6]) was “Active”. For the same molecule, the Ratio [7] was 1, the Activity [8] was “inactive” and the Activity (A2780 [9]) was “Active”. It also gave a Ratio [10] of 0.06, a Ratio [11] of 0.08 and a Ratio [12] of 0.9. The Ratio [13] was 0.22, the Activity [14] was “Active” and the Ratio [15] was 1. For the same molecule, the Ratio [16] was 0.18, the Activity (OCI-Ly3 [17]) was “Active” and the Ratio [18] was 0.5. For the same molecule, the Activity [19] was 80%, the Ratio [20] was 0.26 and the Ratio [21] was 0.83. The Activity (OCI-Ly3 [22]) was “Active”, the Activity (OCI-Ly3 [23]) was “Active” and the Activity [24] was 11%. The Ratio [25] was 0.73, the Activity (A2780 [26]) was “Active” and the Ratio [27] was 0.63. The Activity (A2780 [28]) was “Active”, the Ratio [29] was 0.96 and the Ratio [30] was 0.17. For the same molecule, the Ratio [31] was 0.9, the Ratio [32] was 0.77 and the Ratio [33] was 1. For the same molecule, the EC50 (A2780 [34]) was 27 nM, the Activity (OCI-Ly3 [35]) was “Active” and the Ratio [36] was 0.8. For the same molecule, the EC50 (OCI-Ly3 [37]) was 14 nM, the Ratio [38] was 0.27 and the Activity (A2780 [39]) was “Active”. For the same molecule, the Ratio [40] was 0.25, the solubility [41] was 50 mM (≈ 22.4 mg/mL) and the Ratio [42] was 0.24. The Activity (OCI-Ly3 [43]) was “Active”, the Activity (A2780 [44]) was “Active” and the Ratio [45] was 0.17. For the same molecule, the Activity (OCI-Ly3 [46]) was “Active”.
